The results in this text go back to patent US7989447B2, “1,5 and 3,6-substituted indole compounds having NOS inhibitory activity” (NeurAxon, Inc., priority 2006, dated 2011).

Each structure is given as a SMILES string.

Assay [1] concerns the target human endothelial constitutive NOS (eNOS) (Homo sapiens, UniProt P29474). Briefly: eNOS (Human) enzyme assay, radiometric conversion of [3H]L-arginine to [3H]L-citrulline. Format: biochemical. As to conditions: recombinant human enzyme, 37° C., 45 min; read-out: Human eNOS. As for the experimental part: Recombinant human inducible NOS (iNOS), human endothelial constitutive NOS (eNOS) or human neuronal constitutive NOS(nNOS) were produced in Baculovirus-infected Sf9 cells (ALEXIS). In a radiometric method, NO synthase activity was determined by measuring the conversion of [^3H]L-arginine to [^3H]L-citrulline. To measure iNOS, 10 μL of enzyme was added to 100 μL of 100 mM HEPES, pH=7,4, containing 1 mM CaCl2, 1 mM EDTA, 1 mM dithiotheitol, 1 μM FMN, 1 μM FAD, 10 μM tetrahydrobiopterin, 120 μM NADPH, and 100 nM CaM. To measure eNOS or nNOS, 10 μL of enzyme was added to 100 μL of 40 mM HEPES, pH=7.4, containing 2.4 mM CaCl2, 1 mM MgCl2, 1 mg/mL BSA, 1 mM EDTA, 1 mM dithiothreitol, 1 μM FMN, 1 μM FAD, 10 μM tetrahydrobiopterin, 1 mM NADPH, and 1.2 μM CaM.
To measure enzyme inhibition, a 15 μL solution of a test substance was added to the enzyme assay solution, followed by a pre-incubation time of 15 min at RT. The reaction was initiated by addition of 20 μL L-arginine containing 0.25 μCi of [^3H]arginine/mL and 24 μM L-arginine. The total volume of the reaction mixture was 150 μL in every well. The reactions were carried out at 37° C. for 45 min. The reaction was stopped by adding 20 μL of ice-cold buffer containing 100 mM HEPES, 3 mM EGTA, 3 mM EDTA, pH=5.5. [^3H]L-citrulline was separated by DOWEX (ion-exchange resin DOWEX 50 W X 8-400, SIGMA) and the DOWEX was removed by spinning at 12,000 g for 10 min in the centrifuge. An 70 μL aliquot of the supernatant was added to 100 μL of scintillation fluid and the samples were counted in a liquid scintillation counter (1450 Microbeta Jet, Wallac). […] All assays were performed at least in duplicate.

Assay [2] deals with human neuronal constitutive NOS (nNOS) (Homo sapiens, UniProt P29475). As to the kind of experiment: nNOS (Human) enzyme assay, radiometric conversion of [3H]L-arginine to [3H]L-citrulline. Format: biochemical. As to conditions: for Ratio e/n: human eNOS / human nNOS; for IC50: recombinant human enzyme, 37° C., 45 min, read-out: Human nNOS.
human neuronal constitutive NOS (nNOS), sequence (P29475 whole entry): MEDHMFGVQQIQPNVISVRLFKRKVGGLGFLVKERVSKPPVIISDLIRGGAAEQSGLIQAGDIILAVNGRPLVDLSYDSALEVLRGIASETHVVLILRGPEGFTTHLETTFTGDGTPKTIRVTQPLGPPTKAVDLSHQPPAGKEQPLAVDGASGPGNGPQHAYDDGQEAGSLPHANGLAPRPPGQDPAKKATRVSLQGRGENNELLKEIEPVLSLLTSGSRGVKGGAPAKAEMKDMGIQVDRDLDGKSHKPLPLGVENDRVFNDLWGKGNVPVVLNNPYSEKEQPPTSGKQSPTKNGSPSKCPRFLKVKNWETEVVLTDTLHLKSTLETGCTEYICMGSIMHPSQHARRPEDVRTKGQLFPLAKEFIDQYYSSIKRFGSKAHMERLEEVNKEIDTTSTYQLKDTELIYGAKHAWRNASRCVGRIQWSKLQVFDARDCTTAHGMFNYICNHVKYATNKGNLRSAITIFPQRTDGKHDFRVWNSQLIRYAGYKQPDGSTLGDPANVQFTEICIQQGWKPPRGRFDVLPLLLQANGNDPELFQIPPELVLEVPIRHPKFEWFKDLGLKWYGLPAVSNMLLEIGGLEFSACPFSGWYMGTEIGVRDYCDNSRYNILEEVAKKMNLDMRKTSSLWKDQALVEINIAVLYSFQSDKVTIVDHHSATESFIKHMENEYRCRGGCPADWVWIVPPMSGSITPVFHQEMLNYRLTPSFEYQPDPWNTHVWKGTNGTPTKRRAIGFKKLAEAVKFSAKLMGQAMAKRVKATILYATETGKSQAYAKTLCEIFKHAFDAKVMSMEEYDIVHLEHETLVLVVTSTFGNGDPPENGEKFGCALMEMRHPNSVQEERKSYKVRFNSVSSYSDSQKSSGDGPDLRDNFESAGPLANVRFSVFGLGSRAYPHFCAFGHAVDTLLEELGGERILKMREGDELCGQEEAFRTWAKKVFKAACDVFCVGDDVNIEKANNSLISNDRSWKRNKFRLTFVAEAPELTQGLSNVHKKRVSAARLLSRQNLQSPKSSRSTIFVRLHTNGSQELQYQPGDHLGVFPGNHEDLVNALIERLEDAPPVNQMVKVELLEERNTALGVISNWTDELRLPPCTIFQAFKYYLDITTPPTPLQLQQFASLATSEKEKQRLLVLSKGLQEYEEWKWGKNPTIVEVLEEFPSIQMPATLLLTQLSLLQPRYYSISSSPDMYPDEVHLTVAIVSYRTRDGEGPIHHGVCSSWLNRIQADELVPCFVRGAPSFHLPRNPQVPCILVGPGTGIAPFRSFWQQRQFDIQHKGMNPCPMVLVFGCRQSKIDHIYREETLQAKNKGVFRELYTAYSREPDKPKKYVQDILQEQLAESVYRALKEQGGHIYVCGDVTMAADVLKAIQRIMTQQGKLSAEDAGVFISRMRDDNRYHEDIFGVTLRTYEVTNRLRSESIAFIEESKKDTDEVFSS
Experimental: To measure enzyme inhibition, a 15 μL solution of a test substance was added to the enzyme assay solution, followed by a pre-incubation time of 15 min at RT. […] The total volume of the reaction mixture was 150 μL in every well. The reactions were carried out at 37° C. for 45 min. The reaction was stopped by adding 20 μL of ice-cold buffer containing 100 mM HEPES, 3 mM EGTA, 3 mM EDTA, pH=5.5. [^3H]L-citrulline was separated by DOWEX (ion-exchange resin DOWEX 50 W X 8-400, SIGMA) and the DOWEX was removed by spinning at 12,000 g for 10 min in the centrifuge. […] All assays were performed at least in duplicate. Standard deviations were 10% or less.

Take `CN1CCCCC1CCn1ccc2cc(NC(=N)c3cccs3)ccc21` (stereo not drawn) [Compound 62, N-(1-(2-(1-methylpiperidin-2-yl)ethyl)-1H-indol-5-yl)thiophene-2-carboximidamide]: the IC50 in assay [1] was found to be 6400 nM. Besides, in assay [2], the Ratio e/n came out at 68.01 and the IC50 came out at 90 nM.

As for `N=C(Nc1ccc2c(ccn2-c2cccnc2)c1)c1cccs1` [Compound 74, N-(1-(pyridin-3-yl)-1H-indol-5-yl)thiophene-2-carboximidamide], the IC50 is 2570 nM in assay [1] and 380 nM in assay [2]. The Ratio e/n in assay [2] is 6.74.

With `N=C(Nc1ccc2c(ccn2-c2ccc(N)nc2)c1)c1cccs1` [Compound 77, N-(1-(6-aminopyridin-3-yl)-1H-indol-5-yl)thiophene-2-carboximidamide], the IC50 in assay [1] stood at 3080 nM. Moreover, in assay [2], the Ratio e/n was 5.54 and the IC50 was determined as 550 nM.

In the case of `N=C(Nc1ccc2c(ccn2C2CCOCC2)c1)c1cccs1` [Compound 90, N-(1-(tetrahydro-2H-pyran-4-yl)-1H-indol-5-yl)thiophene-2-carboximidamide], the IC50 in assay [1] came out at 9720 nM. Moreover, in assay [2], the Ratio e/n is listed as 9.34 and the IC50 is 1040 nM.

On to `CN(C)CCn1ccc2cc(NC(=N)c3cccs3)ccc21` [Compound 93, N-(1-(2-(dimethylamino)ethyl)-1H-indol-5-yl)thiophene-2-carboximidamide], for which the IC50 in assay [1] is 3700 nM. In addition, in assay [2], the Ratio e/n turned out to be 21.3 and the IC50 stood at 170 nM.

With `N=C(Nc1ccc2c(ccn2CCN2CCCCC2)c1)c1cccs1` [Compound 96, N-(1-(2-(piperidin-1-yl)ethyl)-1H-indol-5-yl)thiophene-2-carboximidamide], in assay [1], the IC50 turned out to be 9200 nM. Besides, in assay [2], the Ratio e/n is given as 53.80 and the IC50 is 170 nM.

On to `CN1CCC[C@H]1Cn1ccc2cc(NC(=N)c3cccs3)ccc21` [Compound 104, (S)—N-(1-((1-methylpyrrolidin-2-yl)methyl)-1H-indol-5-yl)thiophene-2-carboximidamide], for which the IC50 in assay [1] was determined as 3350 nM; in assay [2], 110 nM. The Ratio e/n in assay [2] was determined as 30.2.

`N=C(Nc1ccc2c(C3=CN4CCC3CC4)c[nH]c2c1)c1cccs1` [Compound 111, N-(3-(1-azabicyclo[2.2.2]oct-2-en-3-yl)-1H-indol-6-yl)thiophene-2-carboximidamide]: in assay [1], the IC50 is 46200 nM. Moreover, in assay [2], the Ratio e/n was found to be 30.19 and the IC50 stood at 1530 nM.

As for `CN1CCC(c2c[nH]c3cc(NC(=N)c4cccs4)ccc23)C1` (stereo not drawn) [Compound 117, N-(3-(1-methylpyrrolidin-3-yl)-1H-indol-6-yl) thiophene-2-carboximidamide], the IC50 in assay [1] came to 7090 nM. Moreover, in assay [2], the Ratio e/n was 35.45 and the IC50 is 200 nM.

With `CNC1CCC(c2c[nH]c3cc(NC(=N)c4cccs4)ccc23)CC1` (stereo not drawn) [Compound 123, N-(3-(4-(methylamino)cyclohexyl)-1H-indol-6-yl)thiophene-2-carboximidamide], in assay [1], the IC50 is 9470 nM. In addition, in assay [2], the Ratio e/n amounted to 28.96 and the IC50 is 320 nM.

In the case of `CNC1CC=C(c2c[nH]c3cc(NC(=N)c4cccs4)ccc23)CC1` (stereo not drawn) [Compound 125, N-(3-(4-(methylamino)cyclohex-1-enyl)-1H-indol-6-yl)thiophene-2-carboximidamide], the IC50 in assay [1] was 21000 nM; in assay [2], 450 nM. In addition, the Ratio e/n in assay [2] was determined as 46.4.

With `CCCN[C@H]1CC[C@H](c2c[nH]c3cc(NC(=N)c4cccs4)ccc32)CC1` [Compound 138, N-(3-((1r,4r)-4-(propylamino)cyclohexyl)-1H-indol-6-yl)thiophene-2-carboximidamide], the IC50 came out at 11400 nM in assay [1] and 720 nM in assay [2]. Besides, in assay [2], the Ratio e/n came out at 15.83.

As for `CC(C)NC1CCC(c2c[nH]c3cc(NC(=N)c4cccs4)ccc23)CC1` (stereo not drawn) [Compound 142], the IC50 in assay [1] turned out to be 6990 nM. Moreover, in assay [2], the Ratio e/n is on record as 23.6 and the IC50 was 290 nM.
